Several values for one entry are separate records, joined by “and”; a condition that tells them apart may be missing. Equal entries are not always repeated.
Columns and labels:
[1] = molecular target: T1, HCMV polymerase (Human cytomegalovirus, UniProt P08546); experiment: HCMV polymerase assay (scintillation proximity assay), original and modified version; format: biochemical; conditions: SPA; several values per example = repeat determinations, assay version not given; read-out: CMV Polymerase IC50
T1 construct: made in house; host or cells: SF-9 insect cells infected with recombinant baculovirus
Method: The HCMV polymerase assay is performed using a scintillation proximity assay (SPA) as described in several references, such as N.D. Cook, et al., Pharmaceutical Manufacturing International, pages 49-53 (1992); K. Takeuchi, Laboratory Practice, September issue (1992); U.S. Pat. No. 4,568,649 (1986); which are incorporated by reference herein. Reactions are performed in 96-well plates. The assay is conducted in 100 μl volume with 5.4 mM HEPES (pH 7.5), 11.7 MM KCl, 4.5 mM MgCl2, 0.36 mg/ml BSA, and 90 nM ^3H-dTTP. Assays are run with and without CHAPS, (3-[(3-Cholamidopropyl)-dimethylammoniol-1-propane-sulfonate) at a final concentration of 2 mM. HCMV polymerase is diluted in enzyme dilution buffer containing 50% glycerol, 250 mM NaCl, 10 mM HEPES (pH 7.5), 100 μg/ml BSA, and 0.01% sodium azide. The HCMV polymerase, which is expressed in recombinant baculovirus-infected SF-9 cells and purified according to literature procedures, is added at 10% (or 10 μl) of the final reaction volume, i.e., 100 μl. Compounds are diluted in 50% DMSO and 10 μl are added to each well. Control wells contain an equivalent concentration of DMSO. Unless noted otherwise, reactions are initiated via the addition of 6 nM biotinylated poly(dA)-oligo(dT) template/primer to reaction mixtures containing the enzyme, substrate, and compounds of interest. Plates are incubated in a 25° C. or 37° C. H2O bath and terminated via the addition of 40 μl/reaction of 0.5 M EDTA (pH 8) per well. Reactions are terminated within the time-frame during which substrate incorporation is linear and varied depending upon the enzyme and conditions used, i.e., 30 min. for HCMV polymerase. Ten (10) μl of streptavidin-SPA beads (20 mg/ml in PBS/10% glycerol) are added following termination of the reaction. Plates are incubated 10 min. at 37° C., then equilibrated to room temperature, and counted on a Packard Topcount. Linear regressions are performed and IC50's are calculated using computer software.
A modified version of the above HCMV polymerase assay is performed as described above, but with the following changes: Compounds are diluted in 100% DMSO until final dilution into assay buffer. In the previous assay, compounds are diluted in 50% DMSO. 4.5 mM dithiotherotol (DTT) is added to the polymerase buffer.

[2] = molecular target: T2, Alpha Polymerase (Homo sapiens, UniProt P09884); experiment: Alpha polymerase inhibition (selectivity); format: biochemical
T2 sequence (P09884 1-1462): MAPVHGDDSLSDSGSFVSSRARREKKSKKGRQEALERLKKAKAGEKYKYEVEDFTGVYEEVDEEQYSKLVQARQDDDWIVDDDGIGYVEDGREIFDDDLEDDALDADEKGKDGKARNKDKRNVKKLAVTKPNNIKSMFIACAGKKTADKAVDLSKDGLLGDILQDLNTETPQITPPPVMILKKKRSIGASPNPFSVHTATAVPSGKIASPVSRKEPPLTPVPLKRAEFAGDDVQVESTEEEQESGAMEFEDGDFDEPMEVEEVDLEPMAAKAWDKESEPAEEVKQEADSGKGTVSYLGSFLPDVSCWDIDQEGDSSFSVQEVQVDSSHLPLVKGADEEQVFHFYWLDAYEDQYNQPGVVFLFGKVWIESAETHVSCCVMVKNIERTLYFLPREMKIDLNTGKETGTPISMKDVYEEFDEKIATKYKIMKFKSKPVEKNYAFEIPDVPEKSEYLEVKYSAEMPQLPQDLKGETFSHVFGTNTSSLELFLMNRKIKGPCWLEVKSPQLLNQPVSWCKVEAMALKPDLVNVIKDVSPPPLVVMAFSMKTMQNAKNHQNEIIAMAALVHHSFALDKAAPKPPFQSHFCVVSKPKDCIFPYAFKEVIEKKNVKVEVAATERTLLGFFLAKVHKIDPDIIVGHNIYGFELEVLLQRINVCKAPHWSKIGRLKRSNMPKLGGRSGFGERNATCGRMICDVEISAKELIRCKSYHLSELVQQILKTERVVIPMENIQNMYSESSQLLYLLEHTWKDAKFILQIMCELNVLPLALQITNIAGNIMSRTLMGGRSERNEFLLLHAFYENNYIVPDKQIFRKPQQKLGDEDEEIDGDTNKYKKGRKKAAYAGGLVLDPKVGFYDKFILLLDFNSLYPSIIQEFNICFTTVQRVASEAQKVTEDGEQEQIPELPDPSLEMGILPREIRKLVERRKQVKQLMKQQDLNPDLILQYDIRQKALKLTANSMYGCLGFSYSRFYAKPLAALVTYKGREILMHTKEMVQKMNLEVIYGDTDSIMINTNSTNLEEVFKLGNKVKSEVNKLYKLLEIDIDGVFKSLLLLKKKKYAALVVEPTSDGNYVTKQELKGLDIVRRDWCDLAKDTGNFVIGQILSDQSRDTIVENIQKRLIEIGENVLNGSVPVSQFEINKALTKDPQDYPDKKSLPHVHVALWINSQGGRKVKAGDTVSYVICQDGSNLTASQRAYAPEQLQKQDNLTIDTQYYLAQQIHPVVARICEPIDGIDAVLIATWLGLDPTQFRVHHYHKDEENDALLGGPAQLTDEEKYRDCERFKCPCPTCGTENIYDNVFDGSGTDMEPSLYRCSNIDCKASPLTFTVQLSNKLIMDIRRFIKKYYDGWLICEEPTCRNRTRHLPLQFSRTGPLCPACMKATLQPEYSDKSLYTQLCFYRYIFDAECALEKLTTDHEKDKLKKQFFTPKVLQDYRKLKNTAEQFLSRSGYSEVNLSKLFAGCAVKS

T1 sequence (P08546 whole entry): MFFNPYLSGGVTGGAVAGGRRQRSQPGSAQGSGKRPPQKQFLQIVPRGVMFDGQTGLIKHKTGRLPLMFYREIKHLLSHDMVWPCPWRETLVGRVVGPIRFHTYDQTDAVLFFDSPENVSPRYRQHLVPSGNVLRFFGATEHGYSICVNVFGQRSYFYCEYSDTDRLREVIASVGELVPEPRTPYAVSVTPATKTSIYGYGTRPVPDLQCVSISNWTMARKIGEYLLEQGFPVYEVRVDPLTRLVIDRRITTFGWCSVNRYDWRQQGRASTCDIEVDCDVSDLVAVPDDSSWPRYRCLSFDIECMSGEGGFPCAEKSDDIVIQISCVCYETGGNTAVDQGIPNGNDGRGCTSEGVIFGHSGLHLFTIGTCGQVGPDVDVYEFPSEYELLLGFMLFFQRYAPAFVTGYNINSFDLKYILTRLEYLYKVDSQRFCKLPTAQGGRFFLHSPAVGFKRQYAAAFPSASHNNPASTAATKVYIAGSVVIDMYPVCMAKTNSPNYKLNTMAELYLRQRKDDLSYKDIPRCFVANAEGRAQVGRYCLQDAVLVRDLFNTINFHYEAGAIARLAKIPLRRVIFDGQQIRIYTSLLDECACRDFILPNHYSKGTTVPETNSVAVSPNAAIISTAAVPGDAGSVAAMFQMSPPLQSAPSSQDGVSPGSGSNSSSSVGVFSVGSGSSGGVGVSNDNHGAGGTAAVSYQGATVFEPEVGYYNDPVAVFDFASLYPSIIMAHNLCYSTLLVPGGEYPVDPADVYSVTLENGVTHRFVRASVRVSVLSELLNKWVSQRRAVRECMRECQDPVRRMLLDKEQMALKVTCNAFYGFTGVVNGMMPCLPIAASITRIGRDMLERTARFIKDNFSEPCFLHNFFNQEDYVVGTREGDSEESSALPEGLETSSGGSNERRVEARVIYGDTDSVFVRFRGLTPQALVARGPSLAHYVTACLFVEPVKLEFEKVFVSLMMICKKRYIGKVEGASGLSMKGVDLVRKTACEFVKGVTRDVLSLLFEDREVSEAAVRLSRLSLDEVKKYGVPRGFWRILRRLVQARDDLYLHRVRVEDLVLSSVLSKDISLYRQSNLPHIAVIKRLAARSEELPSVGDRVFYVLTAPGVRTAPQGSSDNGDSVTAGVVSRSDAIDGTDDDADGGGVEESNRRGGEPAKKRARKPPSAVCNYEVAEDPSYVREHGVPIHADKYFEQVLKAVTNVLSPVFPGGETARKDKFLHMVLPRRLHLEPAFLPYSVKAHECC

SMILES | IC50 [1] | melting point [°C] | IC50 [2] [nM]
CN(Cc1cc2c3c(c1)c(=O)c(C(=O)NCc1ccc(Cl)cc1)cn3CC(=O)N2C)C[C@@H](O)c1ccco1 [Example 11, N-(4-chlorobenzyl)-9-{[[(2R)-2-(2-furyl)-2-hydroxyethyl](methyl)amino]methyl}-1-methyl-2,7-dioxo-2,3-dihydro-1H,7H-pyrido[1,2,3-de]quinoxaline-6-carboxamide] | 110 nM and 46 nM | 119 to 120 | > 20000
CN(Cc1cc2c3c(c1)c(=O)c(C(=O)NCc1ccc(Cl)cc1)cn3CC(=O)N2C)C[C@@H](O)c1cnccn1 [Example 21, N-(4-chlorobenzyl)-9-{[[(2R)-2-hydroxy-2-pyrazin-2-ylethyl](methyl)amino]methyl}-1-methyl-2,7-dioxo-2,3-dihydro-1H,7H-pyrido[1,2,3-de]quinoxaline-6-carboxamide] | 160 nM and 120 nM | 97 to 98 | > 10000
CN(Cc1cc2c3c(c1)c(=O)c(C(=O)NCc1ccc(Cl)cc1)cn3CC(=O)N2C)CC(O)c1ccc(O)cc1 (racemic) [Example 2, rac N-(4-chlorobenzyl)-9-{([2-hydroxy-2-(4-hydroxyphenyl)ethyl](methyl)amino)methyl}-1-methyl-2,7-dioxo-2,3-dihydro-1H,7H-pyrido[1,2,3-de]quinoxaline-6-carboxamide] | 70 nM and 93 nM | 145 to 148 | > 5000
CN(Cc1cc2c3c(c1)c(=O)c(C(=O)NCc1ccc(Cl)cc1)cn3CC(=O)N2C)CC(O)c1csc2ccccc12 (racemic) [Example 15, rac 9-{([2-(1-benzothien-3-yl)-2-hydroxyethyl](methyl)amino)methyl}-N-(4-chlorobenzyl)-1-methyl-2,7-dioxo-2,3-dihydro-1H,7H-pyrido[1,2,3-de]quinoxaline-6-carboxamide] | 110 nM and 86 nM | 147 to 149 | > 20000

Source: patent US20030207877A1, “Pyridoquinoxaline antivirals” (priority 2001, published 2003)
